Laboratory results from PMC4728608, “A Cell-Penetrating Peptide with a Guanidinylethyl Amine Structure Directed to Gene Delivery” (Scientific Reports, 2016).
Read-outs that look alike come from different tables or passages of the source.

Key:
[1] = cited from earlier work
From the text: The unnatural amino acid described herein was a lysine (Lys) derivative with a guanidinylethyl (GEt) group in the side chain amine [Lys(GEt)] (Fig. 1).

[2] = Potentiometric titration of model compounds; conditions: for protonation degree α at pH 5.5 / protonation degree α at pH 7.4: 100 mM amine and/or guanidine in 100 mM HCl titrated with 100 mM NaOH
Method: 1-Ethylamino-2-guanidinylethane hydrochloride, a model compound for Lys(GEt), was synthesized according to Supplementary Scheme S3 in order to clarify the protonation degree of the GEt amine structure within a range from pH 3 to pH 13. […] The monoprotonate state was a major form of the AEt amine structure at neutral pH. […] The GEt amine structure took the diprotonated form even at neutral pH, as expected.
N-Ethylethylenediamine hydrochloride (80.5 mg, 0.5 mmol) and 1-ethylamino-2-guanidinylethane hydrochloride (101.5 mg, 0.5 mmol) were separately dissolved in 100 mM HCl (10 mL) to obtain a solution with 100 mM amine and/or guanidine, and then titrated with 100 mM NaOH at 20 °C. Potentiometric titration was performed with a pH meter D-52 (Horiba, Kyoto, Japan). In this experiment, the titrant was added in quantities of 100 μL after the pH values were stabilized.

[3] = potentiometric titration, 20 °C
[4] = potentiometric titration, 100 mM in 100 mM HCl titrated with 100 mM NaOH, 20 °C

NCCCC[C@H](N)C(=O)O [Lys, lysine]
pKa of protonated side chain (guanidine of Arg, primary amine of Lys) [1]: 10.2

CCNCCNC(=N)N.Cl [model compound for Lys(GEt), 1-Ethylamino-2-guanidinylethane hydrochloride]
pKa1 [2]: 8.8
pKa2 [2]: 12.0
protonation degree α at pH 5.5 [2, 3]: 0.99
protonation degree α at pH 7.4 [2, 3]: 0.96

NCCNCCN [diethylenetriamine]
pKa of protonated secondary amine [1]: 3.9

CCNCCN.Cl [N-Ethylethylenediamine hydrochloride]
protonation degree α at pH 5.5 [2, 3]: 0.97
protonation degree α at pH 7.4 [2, 3]: 0.66
pKa1 [2, 4]: 7.1
pKa2 [2, 4]: 10.3
